Literature values as cited in US20080274215A1, “COMPOSITION FOR TREATMENT OF COLD AND FLU” (NORTHERN HOLDINGS INC., priority 2007, published 2008).

For `C=C1CCC2C(C)(CO)C(O)CCC2(C)C1C/C=C1/C(=O)OCC1O` (stereo not shown) [AG, 3-[2-[decahydro-6-hydroxy-5-(hydroxymethyl)-5,8a-dimethyl-2-methylene-1-napthalenyl]ethylidene]dihydro-4-hydroxy-2(3H)-furanone], which solubility in water is on record?
Its solubility in water is “sparingly soluble”.
